Test results reported in patent publication US9278981B2, “Compounds and compositions for inhibiting the activity of ABL1, ABL2 and BCR-ABL1” (Novartis AG, priority 2012, dated 2016).

biological target: ABL1 (64-515) (Homo sapiens (Human), UniProt P00519); experiment: Radio ABL1 (64-515) assay (radiometric filter-binding); assay type: biochemical
Sequence (P00519 64-515): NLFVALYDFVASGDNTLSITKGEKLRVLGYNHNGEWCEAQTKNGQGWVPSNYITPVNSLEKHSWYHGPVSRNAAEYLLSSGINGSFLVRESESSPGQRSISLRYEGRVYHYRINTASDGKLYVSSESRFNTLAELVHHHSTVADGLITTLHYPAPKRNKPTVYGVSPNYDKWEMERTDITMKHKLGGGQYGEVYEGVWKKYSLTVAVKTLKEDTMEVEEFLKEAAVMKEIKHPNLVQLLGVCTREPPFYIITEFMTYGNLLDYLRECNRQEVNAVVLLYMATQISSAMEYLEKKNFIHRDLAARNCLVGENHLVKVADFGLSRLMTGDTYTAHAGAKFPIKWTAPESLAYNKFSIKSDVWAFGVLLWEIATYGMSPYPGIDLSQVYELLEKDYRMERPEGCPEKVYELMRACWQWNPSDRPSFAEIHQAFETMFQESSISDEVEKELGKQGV

Row | Structure (SMILES) | IC50
1 | NC(=O)C1CCN(c2ncc(C(=O)Nc3ccc(OC(F)(F)F)cc3)cc2-c2cncnc2)CC1 [Example 21] | 13 nM
2 | O=C(Nc1ccc(OC(F)(F)F)cc1)c1cnc(N2CCC(O)C2)c(-c2cccnc2)c1 (stereo not shown) [Example 29, 2-(3-Hydroxypyrrolidin-1-yl)-N-(4-(trifluoromethoxy)phenyl)-[3,3′-bipyridine]-5-carboxamide] | < 3 nM
3 | Cc1ccc(-c2cc(C(=O)Nc3ccc(OC(F)(F)F)cc3)ccc2N2CC[C@@H](O)C2)cn1 [Example 6, (R)-4-(3-Hydroxypyrrolidin-1-yl)-3-(6-methylpyridin-3-yl)-N-(4-(trifluoromethoxy)phenyl)benzamide] | < 3 nM
4 | O=C(Nc1ccc(OC(F)(F)F)cc1)c1cnc(N2CCC3(CCNC3=O)C2)c(-c2cncnc2)c1 (stereo not shown) [Example 17] | < 3 nM
5 | CC1(O)CCN(c2ccc(C(=O)Nc3ccc(OC(F)(F)F)cc3)cc2-c2cncnc2)C1 (stereo not shown) [Example 11, 4-(3-Hydroxy-3-methylpyrrolidin-1-yl)-3-(pyrimidin-5-yl)-N-(4-(trifluoromethoxy)phenyl)benzamide] | < 3 nM
6 | COc1ncc(-c2cc(C(=O)Nc3ccc(OC(F)(F)F)cc3)cnc2N2CC[C@@H](O)C2)cn1 [Example 37, (R)-6-(3-Hydroxypyrrolidin-1-yl)-5-(2-methoxypyrimidin-5-yl)-N-(4-(trifluoromethoxy)phenyl)nicotinamide] | 3 nM
7 | O=C(Nc1ccc(OC(F)(F)F)cc1)c1cnc(N2CC[C@H](CO)C2)c(-c2cccnc2)c1 [Example 81, (S)-2-(3-(Hydroxymethyl)pyrrolidin-1-yl)-N-(4-(trifluoromethoxy)phenyl)-[3,3′-bipyridine]-5-carboxamide] | < 3 nM
8 | O=C(Nc1ccc(OC(F)(F)F)cc1)c1cnc(N2CC[C@@H](O)C2)c(-c2cccc(CO)c2)c1 [Example 59, (R)-5-(3-(Hydroxymethyl)phenyl)-6-(3-hydroxypyrrolidin-1-yl)-N-(4-(trifluoromethoxy)phenyl)nicotinamide] | 6 nM
9 | Cc1cncc(-c2cc(C(=O)Nc3ccc(OC(F)(F)F)cc3)cnc2N2CC[C@@H](O)C2)c1 [Example 44, (R)-2-(3-Hydroxypyrrolidin-1-yl)-5′-methyl-N-(4-(trifluoromethoxy)phenyl)-[3,3′-bipyridine]-5-carboxamide] | < 3 nM
10 | O=C(Nc1ccc(OC(F)(F)F)cc1)c1cnc(N2CCC(O)C2)c(-c2ccncc2)c1 (stereo not shown) [Example 31, 2-(3-Hydroxypyrrolidin-1-yl)-N-(4-(trifluoromethoxy)phenyl)-[3,4′-bipyridine]-5-carboxamide] | 7 nM
11 | COc1ncc(-c2cc(C(=O)Nc3ccc(OC(F)(F)F)cc3)cnc2N2CCC(O)C2)cn1 (stereo not shown) [Example 28, 6-(3-Hydroxypyrrolidin-1-yl)-5-(2-methoxypyrimidin-5-yl)-N-(4-(trifluoromethoxy)phenyl)nicotinamide] | < 3 nM
12 | Cc1ncc(-c2cc(C(=O)Nc3ccc(OC(F)(F)F)cc3)cnc2N2CC[C@@H](O)C2)cn1 [Example 36, (R)-6-(3-Hydroxypyrrolidin-1-yl)-5-(2-methylpyrimidin-5-yl)-N-(4-(trifluoromethoxy)phenyl)nicotinamide] | < 3 nM
13 | COc1ccc(-c2cc(C(=O)Nc3ccc(OC(F)(F)F)cc3)cnc2N2CC[C@@H](O)C2)cn1 [Example 56, (R)-2-(3-hydroxypyrrolidin-1-yl)-6′-methoxy-N-(4-(trifluoromethoxy)phenyl)-[3,3′-bipyridine]-5-carboxamide] | 4 nM
14 | O=C(Nc1ccc(OC(F)(F)F)cc1)c1cnc(N2Cc3ccncc3C2)c(-c2cncnc2)c1 [Example 18] | < 3 nM
15 | O=C(Nc1ccc(OC(F)(F)F)cc1)c1cnc(N2CCC(O)CC2)c(-c2cncnc2)c1 [Example 22] | < 3 nM
16 | O=C(Nc1ccc(OC(F)(F)F)cc1)c1cnc(N2CCC(O)C2)c(-c2ccc(C(F)(F)F)nc2)c1 (stereo not shown) [Example 32, 2-(3-Hydroxypyrrolidin-1-yl)-N-(4-(trifluoromethoxy)phenyl)-6′-(trifluoromethyl)-[3,3′-bipyridine]-5-carboxamide] | < 3 nM
17 | O=C(Nc1ccc(OC(F)(F)F)cc1)c1cnc(N2CC[C@@H](O)C2)c(-c2ccc3nccnc3c2)c1 [Example 64, (R)-6-(3-Hydroxypyrrolidin-1-yl)-5-(quinoxalin-6-yl)-N-(4-(trifluoromethoxy)phenyl)nicotinamide] | < 3 nM
18 | COc1cncc(-c2cc(C(=O)Nc3ccc(OC(F)(F)F)cc3)cnc2N2CC[C@@H](O)C2)c1 [Example 55, (R)-2-(3-hydroxypyrrolidin-1-yl)-5′-methoxy-N-(4-(trifluoromethoxy)phenyl)-[3,3′-bipyridine]-5-carboxamide] | 3 nM

Other lines, results leading:

Row | IC50 | Structure (SMILES)
19 | < 3 nM | O=C(Nc1ccc(OC(F)(F)F)cc1)c1cnc(NCCO)c(-c2cccnc2)c1 [Example 159, 2-((2-Hydroxyethyl)amino)-N-(4-(trifluoromethoxy)phenyl)-[3,3′-bipyridine]-5-carboxamide]
20 | < 3 nM | Cc1ccc(-c2cc(C(=O)Nc3ccc(OC(F)(F)F)cc3)cnc2N2CC[C@@H](N)C2)cn1 [Example 95, (R)-2-(3-Aminopyrrolidin-1-yl)-6′-methyl-N-(4-(trifluoromethoxy)phenyl)-[3,3′-bipyridine]-5-carboxamide]
21 | 6 nM | O=C(Nc1ccc(OC(F)(F)F)cc1)c1cnc(N2CC(CO)C2)c(-c2cnc(Cl)c(F)c2)c1 [Example 141, 6′-Chloro-5′-fluoro-2-(3-(hydroxymethyl)azetidin-1-yl)-N-(4-(trifluoromethoxy)phenyl)-[3,3′-bipyridine]-5-carboxamide]
22 | < 3 nM | CN(CCCO)c1ncc(C(=O)Nc2ccc(OC(F)(F)F)cc2)cc1-c1cncnc1 [Example 165, 6-((3-Hydroxypropyl)(methyl)amino)-5-(pyrimidin-5-yl)-N-(4-(trifluoromethoxy)phenyl)nicotinamide]
23 | 26 nM | O=C(Nc1ccc(OC(F)(F)F)cc1)c1cnc(N2CC[C@H](CO)C2)c(-c2ccc(C3CC3)nc2)c1 [Example 85, (S)-6′-Cyclopropyl-2-(3-(hydroxymethyl)pyrrolidin-1-yl)-N-(4-(trifluoromethoxy)phenyl)-[3,3′-bipyridine]-5-carboxamide]
24 | 6 nM | CC(C)(O)C1CCN(c2ncc(C(=O)Nc3ccc(OC(F)(F)F)cc3)cc2-c2cccnc2)C1 (stereo not shown) [Example 114, 2-(3-(2-Hydroxypropan-2-yl)pyrrolidin-1-yl)-N-(4-(trifluoromethoxy)phenyl)-[3,3′-bipyridine]-5-carboxamide]
25 | 5 nM | N#Cc1ccc(-c2cc(C(=O)Nc3ccc(OC(F)(F)F)cc3)cnc2N2CC[C@H](CO)C2)cn1 [Example 91, (S)-6′-Cyano-2-(3-(hydroxymethyl)pyrrolidin-1-yl)-N-(4-(trifluoromethoxy)phenyl)-[3,3′-bipyridine]-5-carboxamide]
26 | 19 nM | O=C(Nc1ccc(OC(F)(F)F)cc1)c1cnc(N2CC[C@@H](O)C2)c(-c2cncc(C(F)(F)F)c2)c1 [Example 234, (R)-2-(3-Hydroxypyrrolidin-1-yl)-N-(4-(trifluoromethoxy)phenyl)-5′-(trifluoromethyl)-[3,3′-bipyridine]-5-carboxamide]
27 | 5 nM | Cc1ccc(-c2cc(C(=O)Nc3ccc(OC(F)(F)F)cc3)cnc2N2CC[C@@H](CN)C2)cn1 [Example 110, (S)-2-(3-(Aminomethyl)pyrrolidin-1-yl)-6′-methyl-N-(4-(trifluoromethoxy)phenyl)-[3,3′-bipyridine]-5-carboxamide]
28 | < 3 nM | Cc1ccc(-c2cc(C(=O)Nc3ccc(OC(F)(F)F)cc3)cnc2NCCO)cn1 [Example 160, 2-((2-Hydroxyethyl)amino)-6′-methyl-N-(4-(trifluoromethoxy)phenyl)-[3,3′-bipyridine]-5-carboxamide]
29 | 16 nM | Cc1ccc(-c2cc(C(=O)Nc3ccc(OC(F)(F)F)cc3)cnc2N2CCC(C(C)(C)O)C2)cn1 (stereo not shown) [Example 115, 2-(3-(2-Hydroxypropan-2-yl)pyrrolidin-1-yl)-6′-methyl-N-(4-(trifluoromethoxy)phenyl)-[3,3′-bipyridine]-5-carboxamide]
30 | < 3 nM | NC[C@H]1CCN(c2ncc(C(=O)Nc3ccc(OC(F)(F)F)cc3)cc2-c2cccnc2)C1 [Example 106, (R)-2-(3-(Aminomethyl)pyrrolidin-1-yl)-N-(4-(trifluoromethoxy)phenyl)-[3,3′-bipyridine]-5-carboxamide]
31 | < 3 nM | COc1ccc(-c2cc(C(=O)Nc3ccc(OC(F)(F)F)cc3)cnc2N2CC[C@@H](CN)C2)cn1 [Example 111, (S)-2-(3-(Aminomethyl)pyrrolidin-1-yl)-6′-methoxy-N-(4-(trifluoromethoxy)phenyl)-[3,3′-bipyridine]-5-carboxamide]
32 | 10 nM | CC1(O)CN(c2ncc(C(=O)Nc3ccc(OC(F)(F)F)cc3)cc2-c2cnc(Cl)c(F)c2)C1 [Example 134, 6′-Chloro-5′-fluoro-2-(3-hydroxy-3-methylazetidin-1-yl)-N-(4-(trifluoromethoxy)phenyl)-[3,3′-bipyridine]-5-carboxamide]
33 | 4 nM | O=C(Nc1ccc(OC(F)(F)F)cc1)c1cnc(N2CCCNCC2)c(-c2cccnc2)c1 [Example 145, 2-(1,4-Diazepan-1-yl)-N-(4-(trifluoromethoxy)phenyl)-[3,3′-bipyridine]-5-carboxamide]
34 | < 3 nM | NC[C@@H]1CCN(c2ncc(C(=O)Nc3ccc(OC(F)(F)F)cc3)cc2-c2cccnc2)C1 [Example 109, (S)-2-(3-(Aminomethyl)pyrrolidin-1-yl)-N-(4-(trifluoromethoxy)phenyl)-[3,3′-bipyridine]-5-carboxamide]
35 | < 3 nM | Cc1ncc(-c2cc(C(=O)Nc3ccc(OC(F)(F)F)cc3)cnc2N2CC(CO)C2)cn1 [Example 136, 6-(3-(Hydroxymethyl)azetidin-1-yl)-5-(2-methylpyrimidin-5-yl)-N-(4-(trifluoromethoxy)phenyl)nicotinamide]
36 | < 3 nM | CN[C@@H]1CCN(c2ncc(C(=O)Nc3ccc(OC(F)(F)F)cc3)cc2-c2cncnc2)C1 [Example 99, (R)-6-(3-(Methylamino)pyrrolidin-1-yl)-5-(pyrimidin-5-yl)-N-(4-(trifluoromethoxy)phenyl)nicotinamide]
37 | < 3 nM | Cc1ccc(-c2cc(C(=O)Nc3ccc(OC(F)(F)F)cc3)cnc2NCCCO)cn1 [Example 163, 2-((3-Hydroxypropyl)amino)-6′-methyl-N-(4-(trifluoromethoxy)phenyl)-[3,3′-bipyridine]-5-carboxamide]
